The test system of the experiment is Mecp2^R306C and Shank3B^+/− mice. The experiment is described as follows: Chronic isoguvacine treatment from P0-P42 of Mecp2 and Shank3 germline mutant mice. Type of experiment: in vivo, mouse. The procedure: FIGS. 21A-21O show chronic administration of isoguvacine improves tactile over-reactivity, region-selective cortical abnormalities, and some ASD-related behaviors in Mecp2 and Shank3 mutant mice. FIG. 21A: Representative images of P21 control and Mecp2^C/y mutant mice treated daily from P0-21 with either saline or isoguvacine (2 mg/kg). FIG. 21B: Average phenotypic score of P21 Shank3B^+/− or Mecp2^C/y mutant mice and control littermates treated daily with either saline or isoguvacine (2 mg/kg). One-way ANOVA with post-hoc Tukey's test, *, p<0.05. FIG. 21C: Average bodyweight of P21 Shank3B^+/− or Mecp2^C/y mutant mice and control littermates treated daily with either saline or isoguvacine (2 mg/kg). One-way ANOVA with post-hoc Tukey's test, *, p<0.05. […] One-way ANOVA with post-hoc Tukey's test, *, p<0.05. FIG. 21E: Discrimination index for textured NORT. One-way ANOVA with post-hoc Tukey's test, *, p<0.05. FIG. 21F: Representative activity traces in the OF test. FIG. 21G: Percent time spent in the center of the OF chamber. One-way ANOVA with post-hoc Tukey's test, *, p<0.05. FIG. 21H: Percent time spent in the open arms of the EPM. One-way ANOVA with post-hoc Tukey's test, *, p<0.05. FIGS. 21I-21J: Preference index for the percentage of time spent investigating the novel mouse in the “Sociability” (FIG. 21I) or “Social Novelty Recognition Preference” (FIG. 21J) portion of the 3-chamber social interaction test. One-way ANOVA with post-hoc Tukey's test, *, p<0.05. FIG. 21K: Representative IHC images of transverse S1 brain sections, showing PV immunoreactivity in Shank3B^+/− or Mecp2^C/y mutant mice and control littermates treated daily from P1-42 with either saline or isoguvacine (2 mg/kg). FIGS. 21L-21M: Quantification of the number of PV-positive (PV^+) neurons in S1 (FIG. 21L) and V1 (FIG. 21M). One-way ANOVA with post-hoc Tukey's test, *, p<0.05. FIG. 21N: Representative traces showing ePSCS (−70 my hold) and iPSCs (0 mV hold) from S1 slices from Shank3B^+/− or Mecp2^C/y mutant mice and control littermates treated daily from P1-42 with either saline or isoguvacine (2 mg/kg). FIG. 21O: Quantification of excitatory/inhibitory (E/I) ratio in S1 or V1 slices from control and mutant mice. One-way ANOVA with post-hoc Tukey's test, *, p<0.05.
Therefore, it was tested whether chronic treatment of Mecp2 and Shank3 germline mutant mice with isoguvacine beginning shortly after birth (i.p. administration, 2 mg/kg per daily, from P0-P42) improves any of the ASD-related phenotypes commonly observed in adulthood. […] Taken together, treatment with a peripherally restricted GABAA receptor agonist during early postnatal development may provide an effective therapeutic strategy for improving tactile over-reactivity and a subset of other key features of ASD, including anxiety, without causing sedation and other undesirable effects of activating brain GABAA receptors during development.

For the compound `O=C(O)C1=CCNCC1` [Isoguvacine, isoguvacine], the “tactile over-reactivity, anxiety-like behaviors, social impairments, PV+ neuron abnormalities in S1 and BLA, E/I ratios in S1” value (8-week-old mice, 2 mg/kg i.p. daily P0-P42) is “significantly improved multiple ASD-associated behavioral phenotypes”. In addition, where the note is “Mecp2 mutants, chronic 2 mg/kg”, the motor impairments result is on record as “not improved”. Also, the “overall body appearance, or phenotypic score” value (P21, 2 mg/kg i.p. daily, vs saline-treated) was “substantial improvement”. Besides, the “bodyweight of mutant mice” value (P21, Shank3B and Mecp2 mutant mice, 2 mg/kg daily) is “increased bodyweight and were not different in weight from control mice”. Besides, the overgrooming phenotype entry (Shank3 mutants, chronic 2 mg/kg) is “nor was the overgrooming phenotype rescued”. Besides, the “textured discrimination deficits, acoustic PPI performance, memory impairments, PV+ neuron abnormalities and E/I ratios in V1” value (Shank3 or Mecp2 mutants, 2 mg/kg i.p. daily P0-P42) is recorded as “did not improve”.

(Values after patent US12252457B2, “Compositions and methods for reducing tactile dysfunction, anxiety, and social impairment” (President and Fellows of Harvard College, priority 2018, dated 2025).)
